Measurements reported in ChEMBL document CHEMBL5331114, “Discovery of Pyxinol Amide Derivatives Bearing Amino Acid Residues as Nonsubstrate Allosteric Inhibitors of P-Glycoprotein-Mediated Multidrug Resistance” (J Med Chem, 2023).

Assays:
Format in all cases: functional
Conditions in all cases: read-out: Survival
[1] = Cytotoxicity against human KBV Cells assessed as cell survival rate at 10 uM incubated for 72 hrs by MTT assay
[2] = Reversal of multidrug resistance in human KBV Cells assessed as increase in PTX-induced cytotoxicity by measuring cell survival rate at 10 uM incubated for 72 hrs in presence of paclitaxel by MTT assay relative to control
[3] = Reversal of multidrug resistance in human KBV Cells assessed as increase in PTX-induced cytotoxicity by measuring cell survival rate at 5 uM incubated for 72 hrs in presence of paclitaxel by MTT assay relative to control

Structure (SMILES) | viability at 10 µM [1] [%] | viability at 10 µM [2] [%] | viability at 5 µM [3] [%]
CC(C)[C@H](NC(=O)OC(C)(C)C)C(=O)N[C@H]1CC[C@]2(C)[C@H]3C[C@@H](O)[C@@H]4[C@@H]([C@]5(C)CC[C@H](C(C)(C)O)O5)CC[C@@]4(C)[C@]3(C)CC[C@H]2C1(C)C | 114 | 21 | 36
CC(C)(C)OC(=O)C[C@H](NC(=O)OC(C)(C)C)C(=O)N[C@H]1CC[C@]2(C)[C@H]3C[C@@H](O)[C@@H]4[C@@H]([C@]5(C)CC[C@H](C(C)(C)O)O5)CC[C@@]4(C)[C@]3(C)CC[C@H]2C1(C)C | 152 | 28 | 41
CC(C)(C)OC(=O)NCCCC[C@H](NC(=O)OC(C)(C)C)C(=O)N[C@H]1CC[C@]2(C)[C@H]3C[C@@H](O)[C@@H]4[C@@H]([C@]5(C)CC[C@H](C(C)(C)O)O5)CC[C@@]4(C)[C@]3(C)CC[C@H]2C1(C)C | 119 | 33 | 47
CC(C)(O)[C@H]1CC[C@@](C)(C2CC[C@]3(C)[C@@H]2[C@H](O)C[C@@H]2[C@@]4(C)CC[C@H](O)C(C)(C)[C@@H]4CC[C@]23C)O1 (stereo partly drawn) | 94 | 64 | 
CC(C)(O)[C@H]1CC[C@@](C)([C@H]2CC[C@]3(C)[C@@H]2[C@H](O)C[C@@H]2[C@@]4(C)CC[C@H](OC(=O)[C@@H]5CCCN5)C(C)(C)[C@@H]4CC[C@]23C)O1 | 108 | 61 | 76
CC(C)(C)OC(=O)N1CCC[C@H]1C(=O)N[C@H]1CC[C@]2(C)[C@H]3C[C@@H](O)[C@@H]4[C@@H]([C@]5(C)CC[C@@H](C(C)(C)O)O5)CC[C@@]4(C)[C@]3(C)CC[C@H]2C1(C)C | 111 | 30 | 44
CC(C)(O)[C@@H]1CC[C@@](C)([C@H]2CC[C@]3(C)[C@@H]2[C@H](O)C[C@@H]2[C@@]4(C)CC[C@H](NC(=O)[C@@H](N)CCCCN)C(C)(C)[C@@H]4CC[C@]23C)O1 | 87 | 88 | 90
CC(C)(O)[C@H]1CC[C@@](C)([C@H]2CC[C@]3(C)[C@@H]2[C@H](O)C[C@@H]2[C@@]4(C)CC[C@H](N)C(C)(C)[C@@H]4CC[C@]23C)O1 | 98 | 40 | 44
CC(C)(C)OC(=O)N1CCC[C@H]1C(=O)N[C@H]1CC[C@]2(C)[C@H]3C[C@@H](O)[C@@H]4[C@@H]([C@]5(C)CC[C@H](C(C)(C)O)O5)CC[C@@]4(C)[C@]3(C)CC[C@H]2C1(C)C | 155 | 32 | 41
CC(C)(O)[C@@H]1CC[C@@](C)([C@H]2CC[C@]3(C)[C@@H]2[C@H](O)C[C@@H]2[C@@]4(C)CC[C@H](N)C(C)(C)[C@@H]4CC[C@]23C)O1 | 98 | 55 | 94
CC(C)(C)OC(=O)NCCCC[C@H](NC(=O)OC(C)(C)C)C(=O)N[C@H]1CC[C@]2(C)[C@H]3C[C@@H](O)[C@@H]4[C@@H]([C@]5(C)CC[C@@H](C(C)(C)O)O5)CC[C@@]4(C)[C@]3(C)CC[C@H]2C1(C)C | 99 | 29 | 36
CC(C)[C@H](NC(=O)OC(C)(C)C)C(=O)N[C@H]1CC[C@]2(C)[C@H]3C[C@@H](O)[C@@H]4[C@@H]([C@]5(C)CC[C@@H](C(C)(C)O)O5)CC[C@@]4(C)[C@]3(C)CC[C@H]2C1(C)C | 89 | 31 | 48
CC(C)(O)[C@@H]1CC[C@@](C)([C@H]2CC[C@]3(C)[C@@H]2[C@H](O)C[C@@H]2[C@@]4(C)CC[C@H](NC(=O)[C@@H](N)CC(=O)O)C(C)(C)[C@@H]4CC[C@]23C)O1 | 90 | 88 | 84
CC(C)[C@H](N)C(=O)N[C@H]1CC[C@]2(C)[C@H]3C[C@@H](O)[C@@H]4[C@@H]([C@]5(C)CC[C@@H](C(C)(C)O)O5)CC[C@@]4(C)[C@]3(C)CC[C@H]2C1(C)C | 79 | 52 | 81
CC(C)(O)[C@@H]1CC[C@@](C)([C@H]2CC[C@]3(C)[C@@H]2[C@H](O)C[C@@H]2[C@@]4(C)CC[C@H](OC(=O)[C@@H]5CCCN5)C(C)(C)[C@@H]4CC[C@]23C)O1 | 113 | 116 | 113
CC(C)(O)[C@H]1CC[C@@](C)([C@H]2CC[C@]3(C)[C@@H]2[C@H](O)C[C@@H]2[C@@]4(C)CC[C@H](NC(=O)[C@@H](N)CC(=O)O)C(C)(C)[C@@H]4CC[C@]23C)O1 | 95 | 100 | 96
CC(C)(O)[C@@H]1CC[C@@](C)([C@H]2CC[C@]3(C)[C@@H]2[C@H](O)C[C@@H]2[C@@]4(C)CC[C@H](NC(=O)[C@@H]5CCCN5)C(C)(C)[C@@H]4CC[C@]23C)O1 | 78 | 58 | 83
CC(C)(C)OC(=O)N[C@@H](Cc1ccc(OC(C)(C)C)cc1)C(=O)N[C@H]1CC[C@]2(C)[C@H]3C[C@@H](O)[C@@H]4[C@@H]([C@]5(C)CC[C@H](C(C)(C)O)O5)CC[C@@]4(C)[C@]3(C)CC[C@H]2C1(C)C | 125 | 38 | 42
CC(C)(C)OC(=O)N1CCC[C@H]1C(=O)O[C@H]1CC[C@]2(C)[C@H]3C[C@@H](O)[C@@H]4[C@@H]([C@]5(C)CC[C@H](C(C)(C)O)O5)CC[C@@]4(C)[C@]3(C)CC[C@H]2C1(C)C | 102 | 70 | 111
CC(C)(O)[C@@H]1CC[C@@](C)([C@H]2CC[C@]3(C)[C@@H]2[C@H](O)C[C@@H]2[C@@]4(C)CC[C@H](NC(=O)[C@@H](N)Cc5ccc(O)cc5)C(C)(C)[C@@H]4CC[C@]23C)O1 | 91 | 71 | 88
CC(C)(O)[C@@H]1CC[C@@](C)([C@H]2CC[C@]3(C)[C@@H]2[C@H](O)C[C@@H]2[C@@]4(C)CC[C@H](NC(=O)[C@@H](N)Cc5ccccc5)C(C)(C)[C@@H]4CC[C@]23C)O1 | 89 | 36 | 67
CC(C)(O)[C@H]1CC[C@@](C)([C@H]2CC[C@]3(C)[C@@H]2[C@H](O)C[C@@H]2[C@@]4(C)CC[C@H](NC(=O)[C@@H](N)CCCCN)C(C)(C)[C@@H]4CC[C@]23C)O1 | 116 | 112 | 110
CC(C)(O)[C@H]1CC[C@@](C)([C@H]2CC[C@]3(C)[C@@H]2[C@H](O)C[C@@H]2[C@@]4(C)CC[C@H](NC(=O)[C@@H](N)Cc5ccc(O)cc5)C(C)(C)[C@@H]4CC[C@]23C)O1 | 93 | 35 | 59
